Earlier results on 9 compounds are cited in the Kinase Knowledgebase extract (Sharma et al. 2016).

pIC50: −log10 of the molar value.

The target in the first data set is EGFR (UniProt P00533). Description: EGFr Inhibition.
Chain of EGFR (P00533 whole entry, looked up): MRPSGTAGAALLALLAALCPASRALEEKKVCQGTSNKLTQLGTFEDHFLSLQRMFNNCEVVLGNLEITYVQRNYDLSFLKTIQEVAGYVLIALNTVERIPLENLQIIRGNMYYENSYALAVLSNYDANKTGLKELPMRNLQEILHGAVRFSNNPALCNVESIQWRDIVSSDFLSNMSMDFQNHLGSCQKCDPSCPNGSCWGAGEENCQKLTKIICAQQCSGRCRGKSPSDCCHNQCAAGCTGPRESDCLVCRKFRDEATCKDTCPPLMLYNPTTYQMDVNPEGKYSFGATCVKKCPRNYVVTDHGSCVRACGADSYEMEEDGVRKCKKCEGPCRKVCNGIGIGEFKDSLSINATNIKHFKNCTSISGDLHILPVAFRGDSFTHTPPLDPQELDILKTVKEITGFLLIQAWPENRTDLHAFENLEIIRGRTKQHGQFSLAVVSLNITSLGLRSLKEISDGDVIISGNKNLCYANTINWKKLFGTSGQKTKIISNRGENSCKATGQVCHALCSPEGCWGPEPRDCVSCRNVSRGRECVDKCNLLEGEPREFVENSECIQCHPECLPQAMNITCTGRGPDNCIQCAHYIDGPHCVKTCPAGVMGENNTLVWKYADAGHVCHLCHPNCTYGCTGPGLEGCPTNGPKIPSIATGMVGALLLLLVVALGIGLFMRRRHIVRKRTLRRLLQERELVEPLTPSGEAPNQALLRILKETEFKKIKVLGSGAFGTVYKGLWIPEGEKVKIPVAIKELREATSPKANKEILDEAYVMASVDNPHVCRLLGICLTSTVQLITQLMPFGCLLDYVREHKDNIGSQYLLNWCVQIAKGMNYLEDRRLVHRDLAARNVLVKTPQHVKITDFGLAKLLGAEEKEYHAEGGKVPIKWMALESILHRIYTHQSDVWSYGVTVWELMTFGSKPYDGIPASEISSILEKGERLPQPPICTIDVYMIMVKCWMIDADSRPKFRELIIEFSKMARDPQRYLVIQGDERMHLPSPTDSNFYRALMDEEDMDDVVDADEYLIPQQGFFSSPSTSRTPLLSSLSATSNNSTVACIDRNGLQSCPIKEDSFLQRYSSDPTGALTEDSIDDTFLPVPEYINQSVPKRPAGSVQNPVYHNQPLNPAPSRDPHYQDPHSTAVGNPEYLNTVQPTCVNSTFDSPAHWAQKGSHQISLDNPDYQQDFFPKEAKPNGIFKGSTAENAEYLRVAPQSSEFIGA
By pIC50 is commonly meant −log10 of the IC50, conventionally taken in molar units. Regarding `Cn1c(=O)c(-c2c(Cl)cccc2Cl)cc2cnc(NC3CCCCC3)nc21`, the negative-log IC50 (pIC50) is 4.12.
Consider `Cn1c(=O)c(-c2c(Cl)cccc2Cl)cc2cnc(NCc3ccccc3)nc21`, for which the negative-log IC50 (pIC50) was 4.12.
Regarding `CC(C)(C)OC(=O)Nc1ccc(Nc2n[nH]c3ncnc(Nc4cccc(Cl)c4)c23)cc1`, the negative-log IC50 (pIC50) is 4.82.
Turning to `CCOC(=O)c1ccc(Nc2ncc3cc(-c4c(Cl)cccc4Cl)c(=O)n(C)c3n2)cc1`, the negative logarithm of the IC50 (pIC50) is 4.12.

The target of the next data set is CDK2 (human) (UniProt P24941). Description: Enzyme Assay.
Consider `CNS(=O)(=O)Cc1ccc(NC=C2C(=O)Nc3ccc4ncsc4c32)cc1`, for which the pIC50 is 7.58.
`CC(C)Oc1cccc2c1C(=NNc1ccc(S(N)(=O)=O)cc1)C(=O)N2`: the negative-log IC50 (pIC50) was 8.48.
For `O=C1Nc2ccc3ncsc3c2C1=CNc1ccc(S(=O)(=O)NCO)cc1`, the pIC50 was 8.33.
Take `NS(=O)(=O)c1ccc(NN=C2C(=O)Nc3ccc(C(=O)NCCn4ccnc4)cc32)cc1`: the pIC50 was 7.60.
With `O=C1Nc2ccccc2C1=CNc1ccc(-c2cnco2)c2c1CS(=O)(=O)C2`, the pIC50 was 8.05.
